Measurements from patent US5721210A, “Cyclic cell adhesion modulation compounds” (priority 1995, dated 1998).
Read-outs that look alike come from different tables or passages of the source. Bridge positions count the residues as written; N and C are the ends. Square brackets hold non-standard residues; d marks the D form. Peptide text beside a SMILES is read from it. * marks the point of attachment. Acetyl(1-adamantyl) = O=C(CC12CC3CC(CC(C3)C1)C2)*; 2Thi = N[C@@H](Cc1cccs1)C(=O)O; 4Amb = NCc1ccc(C(=O)O)cc1

Key:
[1] = test system: U937 cells (fibronectin receptor) adhering to fibronectin-coated wells
[2] = test system: Jurkat T-cells adhering to IL-1 stimulated human umbilical vein endothelial cell monolayers; experiment: Jurkat-endothelial cell adhesion assay (Cell Adhesion Inhibition Assay II); assay type: cell-based; conditions: for 10 μM% (percentage inhibition at 10 μM): 10 μM peptide; for 10 μM% (percentage inhibition at 10 μM) / 200 μM% (percentage inhibition at 200 μM): Jurkat cells on IL-1 stimulated endothelial monolayers, 20 min at 37° C.; for 200 μM% (percentage inhibition at 200 μM): 200 μM peptide
Procedure: The following assay established the activity of the present compound in inhibiting cell-cell adhesion in a representative in vitro system. This assay measures the adhesive interactions of T-cells to endothelial cell monolayers in the presence of a test compound. The test compound is added in increasing concentrations with T-cells and this is added to endothelial cell monolayers. The plates are incubated, washed and the percentage of attached cells is quantitated.
Human umbilical vein endothelial cells were purchased from Clonetics (San Diego, Calif.) at passage number 2. The cells were grown on 0.5% porcine skin gelatin pre-coated flasks (Sigma, St. Louis, Mo.) in EGM-UV media (Clonetics, San Diego, Calif.) supplemented with 10% fetal bovine serum. Cells were refed every 2-3 days reaching confluence by day 4 to 6. […] The endothelial cells were not used following passage 14-15.
The T-cell line Jurkat was obtained from American Type Tissue Culture Collection (Rockville, Md.). The cells were cultured in RPMI media containing 10% fetal calf serum. The cells were washed twice with Hank's Balanced Salt Solution (HBSS) and resuspended in Dulbecco's […] Eagle's Media (DMEM) containing 2.5 mg/ml Human Serum Albumin (HSA). The Jurkat cells (1×10^6 cells/ml) were stained with 10 μg/ml fluorescein diacetate (Sigma, St. Louis, Mo.) in HSSS containing 5% fetal calf serum. The cells were stained for 15 minutes in the dark at room temperature, washed 2 times, and resuspended in a DMEM-HSA solution.
Confluent endothelial monolayers grown in 96-well tissue culture plates were stimulated for 4 hours at 37° C. with 0.1 ng/ml (^~ 50 U/ml) recombinant IL-1 (Amgen, Thousand Oaks, Calif.). Following this incubation, the monolayers were washed twice with HBSS and 0.1 ml of DMEM-HSA solution was added. Jurkat cells (5×10^5 cells) were combined with appropriate concentrations of a peptide to be tested and 0.1 ml of the Jurkat-peptide mixture were added to the endothelial cell monolayers. Generally, 200 and 10 μM peptide concentrations were tested. […] The plates were placed on ice for 5 minutes to allow for Jurkat cell settling and then incubated at 37° C. for 20 minutes. Following this incubation, the monolayers were washed twice with PBS containing 1 mM calcium chloride and 1 mM magnesium chloride and the plates were read using a Pandex Fluorescence Concentration Analyzer (Baxter, Mundelein, Ill.). Fluorescence in each well was measured as arbitrary fluorescence units and percent adhesion in the absence of a peptide was adjusted to 100% and the percentage adhesion in the presence of the peptide was calculated. Monolayers were also fixed in 3% paraformaldehyde and evaluated microscopically to verify adhesion.

[3] = read-out: IC50 μM, U937 cells on fibronectin-coated wells, 60 min at 37° C., concentration at which adhesion is inhibited to 50% of control

Row | Compound | IC50 [1, 3] [µM] | further results
1 | N=C(N)NCCC[C@@H]1NC(=O)c2ccc(cc2)CNC(=O)[C@H](CC(=O)O)NC(=O)CNC1=O (cyclo(RGD[4Amb])) |  | IC50 [1]: 251 µM
2 | N=C(N)NCCC[C@@H]1NC(=O)CNC(=O)C[C@@H](C(N)=O)NC(=O)[C@@H]2CCCN2C(=O)[C@H](CO)NC(=O)[C@H](CC(=O)O)NC(=O)CNC1=O [Peptide 22, G*RGDSPD*-NH2] (GRGDSPD-NH2; lactam N-7) | 112 | 
3 | N=C(N)NCCC[C@@H]1NC(=O)CNC(=O)C[C@@H](C(N)=O)NC(=O)[C@@H]2CCCN2C(=O)[C@H](CO)NC(=O)[C@H](CC(=O)O)NC(=O)CNC1=O [Peptide 47, G*RGDSPD*-NH2] (GRGDSPD-NH2; lactam N-7) | 134 | 
4 | N=C(N)NCCC[C@@H]1NC(=O)[C@@H](N)CSSC[C@@H](C(=O)O)NC(=O)[C@H](Cc2cccs2)NC(=O)[C@H](CC(=O)O)NC(=O)CNC1=O [Peptide 70, C*RGD(TA)C*] (H-CRGD[2Thi]C-OH; disulfide 1-6) | 190 | 
5 | COc1ccc(C[C@@H]2NC(=O)[C@H](CC(=O)O)NC(=O)CNC(=O)[C@H](CCCNC(=N)N)NC(=O)[C@@H](NC(=O)CNC(=O)CNC(=O)CC34CC5CC(CC(C5)C3)C4)CSSC[C@@H](C(N)=O)NC(=O)[C@@H]3CCCN3C2=O)cc1 [Peptide 96, (Ada)-GGC*RGDY(p-OCH3 -Tyr)PC*-NH2] ({Acetyl(1-adamantyl)}-GGCRGDY(Me)PC-NH2; disulfide 3-9) | 9 | 
6 | N=C(N)NCCC[C@H](N)C(=O)N[C@H]1CSSC[C@@H](C(=O)O)NC(=O)[C@H](Cc2cccs2)NC(=O)[C@H](CC(=O)O)NC1=O [Peptide 101, RC*D(TA)C*] (H-RCD[2Thi]C-OH; disulfide 2-5) | 258 | 
7 | (1-FCA)RC*D(TTC)C* [Peptide 132] | 92 | 
8 | (CPA)-RC*D-(3-thioPro)C* [Peptide 110] | 8 | 
9 | (FMOC)-RC*(DTC)C* [Peptide 156] |  | 10 μM% (percentage inhibition at 10 μM) [2]: 90%; 200 μM% (percentage inhibition at 200 μM) [2]: 32%
10 | (FMOC)-RC*D(TTC)C* [Peptide 166] |  | 10 μM% (percentage inhibition at 10 μM) [2]: 18%; 200 μM% (percentage inhibition at 200 μM) [2]: 11%; IC50 ([2]; Jurkat-endothelial cell adhesion, peptides tested at 200, 40, 8, 1.6, 0.32, 0.064 μM): 0.9 µM
11 | RC*D(TTC)C* [Peptide 122] | 6 | 
